# Reference: patent US20210255193A1, “LYSINE REACTIVE PROBES AND USES THEREOF” (The Scripps Research Institute, priority 2017, published 2021)
# Key:
# Test in all cases: competitive isoTOP-ABPP
# Type in all cases: binding
# [1] = target: T1, GLUD1 Glutamate dehydrogenase 1, mitochondrial (Homo sapiens, UniProt P00367); settings: for isoTOP-ABPP reactivity ratio at lysine P00367_K480 / isoTOP-ABPP ratio (R) at liganded lysine P00367_K480: 50 uM, in vitro; for isoTOP-ABPP reactivity ratio at lysine P00367_K480: 231 sol; for isoTOP-ABPP ratio (R) at liganded lysine P00367_K480: sol, 231; for isoTOP-ABPP ratio, lysine P00367_K480: possible other lysine P00367_K477
# T1 construct: isoTOP-ABPP experiments performed in cell lysates (in vitro); endogenous in cells; host or cells: MDA-MB-231 soluble lysate
# How it was run: (§1)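 Lysate + fragment (50 μM activated ester / 100 μM guanidinylating agent) or DMSO → 0.1 mM STP-alkyne, 1 h, RT → CuAAC to TEV tags (compound light, DMSO heavy) → LC-MS. R = heavy/light MS1 area; liganded lysine if R≥4.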
# [2] = target: T2, PNPO Pyridoxine-5-phosphate oxidase (Homo sapiens, UniProt Q9NVS9); settings: for isoTOP-ABPP reactivity ratio at lysine Q9NVS9_K100 / isoTOP-ABPP ratio (R) at liganded lysine Q9NVS9_K100: 50 uM, in vitro; for isoTOP-ABPP reactivity ratio at lysine Q9NVS9_K100: 231 sol; for isoTOP-ABPP ratio (R) at liganded lysine Q9NVS9_K100: sol, 231
# T2 construct: endogenous in cells; host or cells: MDA-MB-231 (soluble fraction of lysate)
# T2 sequence (Q9NVS9 1-261): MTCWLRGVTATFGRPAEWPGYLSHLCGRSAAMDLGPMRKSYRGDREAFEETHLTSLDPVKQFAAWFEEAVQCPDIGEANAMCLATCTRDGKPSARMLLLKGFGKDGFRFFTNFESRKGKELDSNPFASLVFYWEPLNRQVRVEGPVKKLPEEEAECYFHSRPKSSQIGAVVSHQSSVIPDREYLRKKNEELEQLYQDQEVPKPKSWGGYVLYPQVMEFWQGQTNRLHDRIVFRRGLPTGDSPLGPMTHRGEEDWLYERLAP
# How it was run: as §1
# [3] = target: T3, POLR2L DNA-directed RNA polymerases I, II, and III subunit (Homo sapiens, UniProt P62875); settings: for isoTOP-ABPP reactivity ratio at lysine P62875_K67 / isoTOP-ABPP ratio (R) at liganded lysine P62875_K67: 50 uM, in vitro; for isoTOP-ABPP reactivity ratio at lysine P62875_K67: 231 sol; for isoTOP-ABPP ratio (R) at liganded lysine P62875_K67: sol, 231
# T3 construct: isoTOP-ABPP experiments performed in cell lysates (in vitro); endogenous in cells; host or cells: soluble proteome of human cancer cell lines (MDA-MB-231, Ramos, Jurkat)
# How it was run: as §1
# [4] = target: T4, STRN3 Striatin-3 (Homo sapiens, UniProt Q13033); settings: for isoTOP-ABPP reactivity ratio at lysine Q13033_K755 / isoTOP-ABPP ratio (R) at liganded lysine Q13033_K755: 50 uM, in vitro; for isoTOP-ABPP reactivity ratio at lysine Q13033_K755: 231 sol; for isoTOP-ABPP ratio (R) at liganded lysine Q13033_K755: sol, 231
# T4 construct: isoTOP-ABPP experiments performed in cell lysates (in vitro); endogenous in cells; host or cells: soluble proteome of human cancer cell lines (MDA-MB-231, Ramos, Jurkat)
# T4 sequence (Q13033 1-797): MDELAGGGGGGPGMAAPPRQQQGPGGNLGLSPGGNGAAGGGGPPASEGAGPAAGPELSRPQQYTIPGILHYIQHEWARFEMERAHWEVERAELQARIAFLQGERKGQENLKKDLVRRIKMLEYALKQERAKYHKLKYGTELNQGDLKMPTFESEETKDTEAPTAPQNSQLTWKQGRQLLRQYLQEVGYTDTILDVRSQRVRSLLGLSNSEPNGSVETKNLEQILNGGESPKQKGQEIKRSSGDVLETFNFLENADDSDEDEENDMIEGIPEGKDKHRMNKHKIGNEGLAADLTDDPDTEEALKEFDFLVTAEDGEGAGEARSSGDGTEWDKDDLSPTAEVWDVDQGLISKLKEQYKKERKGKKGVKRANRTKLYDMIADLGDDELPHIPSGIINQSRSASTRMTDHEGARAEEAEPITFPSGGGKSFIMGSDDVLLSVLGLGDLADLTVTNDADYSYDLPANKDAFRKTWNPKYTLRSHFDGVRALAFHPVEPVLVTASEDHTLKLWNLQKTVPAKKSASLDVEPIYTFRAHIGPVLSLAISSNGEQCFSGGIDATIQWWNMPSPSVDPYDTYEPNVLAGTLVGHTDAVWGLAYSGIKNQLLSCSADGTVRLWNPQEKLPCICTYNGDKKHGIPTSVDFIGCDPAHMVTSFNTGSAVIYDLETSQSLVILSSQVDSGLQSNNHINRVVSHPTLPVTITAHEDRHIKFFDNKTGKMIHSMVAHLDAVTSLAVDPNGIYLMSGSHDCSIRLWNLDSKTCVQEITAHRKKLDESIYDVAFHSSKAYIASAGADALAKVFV
# How it was run: as §1
# [5] = target: T5, DYNC1H1 Cytoplasmic dynein 1 heavy chain 1 (Homo sapiens, UniProt Q14204); settings: 50 uM, in vitro; for isoTOP-ABPP reactivity ratio at lysine Q14204_K1649: 231 sol
# T5 construct: isoTOP-ABPP experiments performed in cell lysates (in vitro); endogenous in cells; host or cells: soluble proteome of human cancer cell lines (MDA-MB-231, Ramos, Jurkat)
# How it was run: as §1
# T5 sequence (Q14204 whole entry): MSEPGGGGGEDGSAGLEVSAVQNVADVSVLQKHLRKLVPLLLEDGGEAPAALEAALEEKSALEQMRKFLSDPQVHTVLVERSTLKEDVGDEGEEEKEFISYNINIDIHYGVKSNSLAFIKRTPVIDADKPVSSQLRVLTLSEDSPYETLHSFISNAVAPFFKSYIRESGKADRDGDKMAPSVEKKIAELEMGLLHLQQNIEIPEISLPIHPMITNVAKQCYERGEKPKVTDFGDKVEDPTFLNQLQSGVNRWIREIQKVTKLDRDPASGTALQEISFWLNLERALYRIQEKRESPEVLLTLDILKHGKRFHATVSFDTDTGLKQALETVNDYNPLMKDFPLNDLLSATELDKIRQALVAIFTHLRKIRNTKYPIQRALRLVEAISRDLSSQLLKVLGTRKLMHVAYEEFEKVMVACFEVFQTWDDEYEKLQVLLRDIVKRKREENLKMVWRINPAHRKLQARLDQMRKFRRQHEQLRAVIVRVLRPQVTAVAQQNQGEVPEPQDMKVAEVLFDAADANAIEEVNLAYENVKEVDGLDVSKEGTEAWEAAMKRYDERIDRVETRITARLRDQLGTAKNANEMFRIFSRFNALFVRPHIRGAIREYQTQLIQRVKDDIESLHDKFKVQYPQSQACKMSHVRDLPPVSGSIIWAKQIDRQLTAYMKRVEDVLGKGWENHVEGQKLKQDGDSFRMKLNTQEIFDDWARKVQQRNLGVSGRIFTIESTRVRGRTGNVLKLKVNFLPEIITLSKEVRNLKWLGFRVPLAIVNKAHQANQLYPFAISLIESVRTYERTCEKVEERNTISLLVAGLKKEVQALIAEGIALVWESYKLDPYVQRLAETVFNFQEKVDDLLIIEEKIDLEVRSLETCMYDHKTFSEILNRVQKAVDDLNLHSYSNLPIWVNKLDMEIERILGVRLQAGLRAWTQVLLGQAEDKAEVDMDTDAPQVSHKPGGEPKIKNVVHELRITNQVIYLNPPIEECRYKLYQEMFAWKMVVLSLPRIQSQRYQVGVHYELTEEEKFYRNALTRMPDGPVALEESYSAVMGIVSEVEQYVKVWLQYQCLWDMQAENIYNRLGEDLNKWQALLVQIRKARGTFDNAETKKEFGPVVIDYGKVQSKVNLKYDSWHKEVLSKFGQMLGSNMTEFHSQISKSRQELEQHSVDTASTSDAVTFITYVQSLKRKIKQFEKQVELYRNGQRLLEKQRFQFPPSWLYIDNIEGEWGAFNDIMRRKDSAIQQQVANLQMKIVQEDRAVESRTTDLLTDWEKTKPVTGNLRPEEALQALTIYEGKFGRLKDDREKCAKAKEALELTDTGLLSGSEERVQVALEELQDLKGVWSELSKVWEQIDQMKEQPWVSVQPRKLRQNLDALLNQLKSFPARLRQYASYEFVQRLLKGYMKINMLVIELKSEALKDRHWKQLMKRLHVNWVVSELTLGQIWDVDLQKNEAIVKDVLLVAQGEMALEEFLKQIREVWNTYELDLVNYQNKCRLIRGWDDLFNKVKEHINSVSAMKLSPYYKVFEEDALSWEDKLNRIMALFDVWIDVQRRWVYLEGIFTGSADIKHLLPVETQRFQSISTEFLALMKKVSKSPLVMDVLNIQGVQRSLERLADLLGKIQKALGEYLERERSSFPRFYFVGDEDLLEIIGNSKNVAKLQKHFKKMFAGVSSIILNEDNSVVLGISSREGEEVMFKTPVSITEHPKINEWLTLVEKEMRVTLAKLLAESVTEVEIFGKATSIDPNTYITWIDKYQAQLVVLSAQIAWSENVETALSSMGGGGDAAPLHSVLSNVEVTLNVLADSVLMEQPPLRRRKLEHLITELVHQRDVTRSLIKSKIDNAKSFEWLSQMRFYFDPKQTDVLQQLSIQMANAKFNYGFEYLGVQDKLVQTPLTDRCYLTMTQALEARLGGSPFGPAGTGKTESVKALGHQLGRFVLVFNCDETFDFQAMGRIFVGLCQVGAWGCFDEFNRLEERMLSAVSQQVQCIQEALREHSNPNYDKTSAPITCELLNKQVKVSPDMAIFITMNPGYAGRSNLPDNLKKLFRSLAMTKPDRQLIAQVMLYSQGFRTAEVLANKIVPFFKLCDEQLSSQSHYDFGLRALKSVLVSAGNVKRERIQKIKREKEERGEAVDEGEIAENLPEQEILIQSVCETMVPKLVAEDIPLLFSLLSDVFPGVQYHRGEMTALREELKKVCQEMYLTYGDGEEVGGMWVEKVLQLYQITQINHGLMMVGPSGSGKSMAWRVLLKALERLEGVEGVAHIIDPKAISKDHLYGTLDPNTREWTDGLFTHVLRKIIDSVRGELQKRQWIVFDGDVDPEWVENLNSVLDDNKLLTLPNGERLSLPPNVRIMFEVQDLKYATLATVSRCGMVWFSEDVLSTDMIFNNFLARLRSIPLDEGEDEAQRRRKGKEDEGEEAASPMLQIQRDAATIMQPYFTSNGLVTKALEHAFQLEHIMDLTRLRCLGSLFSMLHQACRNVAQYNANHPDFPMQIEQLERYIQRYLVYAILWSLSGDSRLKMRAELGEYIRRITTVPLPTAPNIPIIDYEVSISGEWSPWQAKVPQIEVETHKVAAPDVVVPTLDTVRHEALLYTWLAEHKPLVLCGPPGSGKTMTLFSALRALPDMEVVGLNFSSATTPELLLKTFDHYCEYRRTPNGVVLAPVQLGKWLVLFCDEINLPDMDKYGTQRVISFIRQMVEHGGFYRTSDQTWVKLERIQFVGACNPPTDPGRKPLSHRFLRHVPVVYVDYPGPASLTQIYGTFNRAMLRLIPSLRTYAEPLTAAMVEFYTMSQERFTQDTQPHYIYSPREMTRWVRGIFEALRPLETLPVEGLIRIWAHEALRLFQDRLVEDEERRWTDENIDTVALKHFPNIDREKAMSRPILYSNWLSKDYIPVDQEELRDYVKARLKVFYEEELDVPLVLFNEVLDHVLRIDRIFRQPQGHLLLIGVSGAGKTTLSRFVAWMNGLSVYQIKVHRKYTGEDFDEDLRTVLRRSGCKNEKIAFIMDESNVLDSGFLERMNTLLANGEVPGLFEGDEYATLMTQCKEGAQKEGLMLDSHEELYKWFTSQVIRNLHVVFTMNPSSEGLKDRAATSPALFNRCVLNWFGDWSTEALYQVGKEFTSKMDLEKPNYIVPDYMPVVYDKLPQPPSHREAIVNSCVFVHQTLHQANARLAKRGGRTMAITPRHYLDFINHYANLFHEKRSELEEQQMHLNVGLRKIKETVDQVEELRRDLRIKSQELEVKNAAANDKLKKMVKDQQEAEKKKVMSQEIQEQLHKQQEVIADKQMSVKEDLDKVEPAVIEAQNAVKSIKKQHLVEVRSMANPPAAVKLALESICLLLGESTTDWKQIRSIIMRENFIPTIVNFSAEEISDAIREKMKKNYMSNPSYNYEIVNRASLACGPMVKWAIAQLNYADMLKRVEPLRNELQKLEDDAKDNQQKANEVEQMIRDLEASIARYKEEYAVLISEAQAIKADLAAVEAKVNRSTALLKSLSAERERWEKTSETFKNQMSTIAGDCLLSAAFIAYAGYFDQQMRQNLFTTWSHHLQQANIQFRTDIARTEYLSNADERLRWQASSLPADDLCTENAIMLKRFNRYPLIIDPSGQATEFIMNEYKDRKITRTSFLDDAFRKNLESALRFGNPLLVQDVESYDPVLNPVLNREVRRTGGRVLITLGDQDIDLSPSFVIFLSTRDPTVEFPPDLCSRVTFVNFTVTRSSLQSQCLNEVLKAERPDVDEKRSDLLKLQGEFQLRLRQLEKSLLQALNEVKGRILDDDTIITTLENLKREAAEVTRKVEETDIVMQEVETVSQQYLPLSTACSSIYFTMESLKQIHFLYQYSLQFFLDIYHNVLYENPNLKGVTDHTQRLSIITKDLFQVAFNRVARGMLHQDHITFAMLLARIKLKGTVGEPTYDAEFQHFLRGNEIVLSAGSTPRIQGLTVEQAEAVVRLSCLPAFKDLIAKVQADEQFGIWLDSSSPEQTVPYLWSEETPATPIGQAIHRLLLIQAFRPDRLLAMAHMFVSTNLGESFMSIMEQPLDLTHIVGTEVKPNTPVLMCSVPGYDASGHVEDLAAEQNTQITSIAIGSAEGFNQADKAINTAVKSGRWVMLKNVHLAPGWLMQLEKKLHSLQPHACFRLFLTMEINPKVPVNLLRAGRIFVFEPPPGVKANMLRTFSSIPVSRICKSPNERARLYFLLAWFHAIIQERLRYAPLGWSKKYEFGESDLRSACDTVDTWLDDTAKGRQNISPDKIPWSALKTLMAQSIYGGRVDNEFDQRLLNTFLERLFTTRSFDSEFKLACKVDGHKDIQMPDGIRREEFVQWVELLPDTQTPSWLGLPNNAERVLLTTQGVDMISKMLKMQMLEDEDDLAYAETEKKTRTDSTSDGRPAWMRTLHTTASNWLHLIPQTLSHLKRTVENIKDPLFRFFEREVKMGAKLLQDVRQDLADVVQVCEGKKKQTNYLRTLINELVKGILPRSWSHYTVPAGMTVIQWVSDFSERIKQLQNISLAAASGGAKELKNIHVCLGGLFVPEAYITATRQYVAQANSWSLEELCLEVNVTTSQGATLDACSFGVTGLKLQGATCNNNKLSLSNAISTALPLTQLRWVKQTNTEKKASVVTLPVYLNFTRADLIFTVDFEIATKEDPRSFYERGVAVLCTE
# T1 sequence (P00367 54-558): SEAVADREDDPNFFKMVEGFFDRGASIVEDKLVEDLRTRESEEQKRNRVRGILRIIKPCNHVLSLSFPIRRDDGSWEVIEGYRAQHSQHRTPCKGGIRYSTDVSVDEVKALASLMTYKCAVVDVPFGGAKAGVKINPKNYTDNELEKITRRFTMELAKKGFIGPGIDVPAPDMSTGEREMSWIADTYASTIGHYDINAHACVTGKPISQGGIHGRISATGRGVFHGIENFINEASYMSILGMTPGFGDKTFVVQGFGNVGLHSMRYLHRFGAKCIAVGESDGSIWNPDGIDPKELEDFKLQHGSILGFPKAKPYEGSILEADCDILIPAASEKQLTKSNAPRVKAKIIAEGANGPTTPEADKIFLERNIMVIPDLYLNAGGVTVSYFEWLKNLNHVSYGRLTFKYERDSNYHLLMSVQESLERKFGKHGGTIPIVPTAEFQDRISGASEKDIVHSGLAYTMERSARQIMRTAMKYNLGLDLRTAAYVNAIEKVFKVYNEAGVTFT
compound,measurement,setting,value
"O=C(CCc1coc2cc(F)ccc2c1=O)Oc1c(F)c(F)c(F)c(F)c1F [fragment 26, Pentafluorophenyl 3-(7-fluoro-4-oxo-4H-chromen-3-yl)propanoate]",isoTOP-ABPP reactivity ratio at lysine P00367_K480,[1],1.6
same,isoTOP-ABPP reactivity ratio at lysine Q9NVS9_K100,[2],1.4
same,isoTOP-ABPP reactivity ratio at lysine P62875_K67,[3],1.1
same,isoTOP-ABPP reactivity ratio at lysine Q13033_K755,[4],1.0
"O=C(CCc1cn(-c2ccccc2)nc1-c1ccccc1)Oc1ccc([N+](=O)[O-])cc1[N+](=O)[O-] [fragment 29, 2,4-Dinitrophenyl 3-(1,3-diphenyl-1H-pyrazol-4-yl)propanoate]",isoTOP-ABPP reactivity ratio at lysine Q14204_K1649,[5],1.1
same,isoTOP-ABPP reactivity ratio at lysine P00367_K480,[1],1.9
same,isoTOP-ABPP reactivity ratio at lysine Q9NVS9_K100,[2],1.9
same,isoTOP-ABPP reactivity ratio at lysine Q13033_K755,[4],1.1
"O=C(Oc1ccc([N+](=O)[O-])cc1[N+](=O)[O-])C(c1ccccc1)c1ccccc1 [fragment 30, 2,4-Dinitrophenyl 2,2-diphenylacetate]",isoTOP-ABPP reactivity ratio at lysine P00367_K480,[1],1.8
same,isoTOP-ABPP reactivity ratio at lysine Q9NVS9_K100,[2],1.0
same,isoTOP-ABPP reactivity ratio at lysine P62875_K67,[3],1.8
same,isoTOP-ABPP reactivity ratio at lysine Q13033_K755,[4],2.0
"O=C(Oc1ccc([N+](=O)[O-])cc1[N+](=O)[O-])c1cc(C(F)(F)F)cc(C(F)(F)F)c1 [fragment 31, 2,4-Dinitrophenyl 3,5-bis(trifluoromethyl)benzoate]",isoTOP-ABPP reactivity ratio at lysine P00367_K480,[1],1.3
same,isoTOP-ABPP reactivity ratio at lysine Q9NVS9_K100,[2],1.0
same,isoTOP-ABPP reactivity ratio at lysine P62875_K67,[3],0.9
same,isoTOP-ABPP reactivity ratio at lysine Q13033_K755,[4],1.4
"Cn1cc(CC(=O)Oc2ccc([N+](=O)[O-])cc2[N+](=O)[O-])c2ccccc21 [fragment 32, 2,4-Dinitrophenyl 2-(1-methyl-1H-indol-3-yl)acetate]",isoTOP-ABPP reactivity ratio at lysine Q14204_K1649,[5],1.2
same,isoTOP-ABPP reactivity ratio at lysine P00367_K480,[1],4.4
same,isoTOP-ABPP reactivity ratio at lysine Q9NVS9_K100,[2],3.6
same,isoTOP-ABPP reactivity ratio at lysine Q13033_K755,[4],2.7
"COc1cc(CCC(=O)Oc2ccc([N+](=O)[O-])cc2[N+](=O)[O-])cc(OC)c1OC [fragment 33, 2,4-Dinitrophenyl 3-(3,4,5-trimethoxyphenyl)propanoate]",isoTOP-ABPP reactivity ratio at lysine Q14204_K1649,[5],1.1
same,isoTOP-ABPP reactivity ratio at lysine P00367_K480,[1],6.2
same,isoTOP-ABPP reactivity ratio at lysine Q9NVS9_K100,[2],1.2
same,isoTOP-ABPP reactivity ratio at lysine Q13033_K755,[4],1.8
"O=C(Oc1ccc([N+](=O)[O-])cc1[N+](=O)[O-])C1CCN(C(=O)OCc2ccccc2)CC1 [fragment 34, 1-Benzyl 4-(2,4-dinitrophenyl) piperidine-1,4-dicarboxylate]",isoTOP-ABPP ratio (R) at liganded lysine P00367_K480,[1],1.3
same,isoTOP-ABPP ratio (R) at liganded lysine Q9NVS9_K100,[2],0.9
same,isoTOP-ABPP ratio (R) at liganded lysine P62875_K67,[3],1.0
same,isoTOP-ABPP ratio (R) at liganded lysine Q13033_K755,[4],3.7
"O=C(Oc1ccc([N+](=O)[O-])cc1[N+](=O)[O-])c1ccc(-c2ccccc2)cc1 [fragment 37, 2,4-Dinitrophenyl [1,1′-biphenyl]-4-carboxylate]",isoTOP-ABPP ratio (R) at liganded lysine P00367_K480,[1],1.1
same,isoTOP-ABPP ratio (R) at liganded lysine Q9NVS9_K100,[2],0.9
same,isoTOP-ABPP ratio (R) at liganded lysine P62875_K67,[3],0.9
same,isoTOP-ABPP ratio (R) at liganded lysine Q13033_K755,[4],0.8
"CC(=O)Oc1ccc([N+](=O)[O-])cc1[N+](=O)[O-] [fragment 43, 2,4-Dinitrophenyl acetate]",isoTOP-ABPP ratio (R) at liganded lysine Q14204_K1649,"[5]; sol, 231",0.9
same,isoTOP-ABPP ratio (R) at liganded lysine P00367_K480,[1],3.9
same,isoTOP-ABPP ratio (R) at liganded lysine Q9NVS9_K100,[2],1.0
"O=C(Oc1c(F)c(F)cc(F)c1F)c1cc(C(F)(F)F)cc(C(F)(F)F)c1 [fragment 48, 2,3,5,6-Tetrafluorophenyl 3,5-bis(trifluoromethyl)benzoate]","isoTOP-ABPP ratio, lysine P00367_K480",[1]; 50 uM_231_sol_in vitro,1.5
same,"isoTOP-ABPP ratio, lysine Q9NVS9_K100",[2]; 50 uM_231_sol_in vitro,0.9
same,"isoTOP-ABPP ratio, lysine P62875_K67",[3]; 50 uM_231_sol_in vitro,0.9
same,"isoTOP-ABPP ratio, lysine Q13033_K755",[4]; 50 uM_231_sol_in vitro,1.2
"COC(=O)NC(=NC(=O)OCC1c2ccccc2-c2ccccc21)n1cccn1 [fragment 49, N-Methoxycarbonyl-N′-9-fluorenylmethoxycarbonyl-pyrazole-1-carboxamidine]","isoTOP-ABPP ratio, lysine P00367_K480",[1]; 100 uM_231_sol_in vitro,2.0
same,"isoTOP-ABPP ratio, lysine Q9NVS9_K100",[2]; 100 uM_231_sol_in vitro,3.3
same,"isoTOP-ABPP ratio, lysine Q13033_K755",[4]; 100 uM_231_sol_in vitro,1.8
